Measurements from patent publication US10189795B2, “Aryl amine substituted quinoxaline used as anticancer drugs” (priority 2014, dated 2019).

Tests used:
[1] = system: H520; test: cell viability of H520 cells, 1 and 10 uM; assay type: cell-based; conditions: Homo sapiens, NCI-H520
Method: [Worded in the source for another cell line; this cell line is reported under the same test.] (§1) Sorafenib (Nexavar), erlotinib (Tarceva) and Paclitaxel were kindly provided by Bayer Pharmaceuticals (Pittsburgh, Pa., USA) and Roche Pharmaceuticals (Basel, Switzerland) respectively. Okadaic acid (OA) was purchased from Cayman Chemical (Ann Arbor, Mich., USA) and z-VAD-fmk was obtained from Sigma (St. Louis, Mo., USA). For in vitro studies, drugs at various concentrations were dissolved in dimethyl sulfoxide (DMSO), and added to cells in Dulbecco's modified Eagle's medium (DMEM) or Roswell Park Memorial Institute (RPMI) containing 5% fetal bovine serum (FBS).
(§2) The Sk-Hep1, PLC/PRF/5 (PLC) and Hep3B cell lines were obtained from American Type Culture Collection (ATCC; Manassas, Va., USA). The Huh-7 HCC cell line was obtained from the Health Science Research Resources Bank (HSRRB; Osaka, Japan; JCRB0403). Cells were maintained in DMEM supplemented with 10% FBS in a 37° C. humidified incubator in an atmosphere of 5% CO^2 in air.

[2] = system: SW900; test: cell viability of SW900 cells, 1 and 10 uM; assay type: cell-based; conditions: Homo sapiens
Method: [Worded in the source for another cell line; this cell line is reported under the same test.] as §1, §2

[3] = system: H358; test: cell viability of H358 cells, 1 and 10 uM; assay type: cell-based; conditions: Homo sapiens, NCI-H358
Method: [Worded in the source for another cell line; this cell line is reported under the same test.] as §1, §2

[4] = system: H2170; test: cell viability of H2170 cells, 1 and 10 uM; assay type: cell-based; conditions: Homo sapiens, NCI-H2170
Method: [Worded in the source for another cell line; this cell line is reported under the same test.] as §1, §2

[5] = system: NCI-1703; test: cell viability of NCI-1703 cells, 1 and 10 uM of each erlotinib derivative, and IC50; assay type: cell-based; conditions: Homo sapiens; for IC50: cell viability
Method: [Worded in the source for another cell line; this cell line is reported under the same test.] as §1, §2

[6] = BA (%), Table 5; conditions: in vivo
[7] = system: NCI-H226; test: cell viability of NCI-H226 cells, 1 and 10 uM; assay type: cell-based; conditions: Homo sapiens
Method: [Worded in the source for another cell line; this cell line is reported under the same test.] as §1, §2

[8] = system: A549; test: cell viability of A549 cells, 1 and 10 uM; assay type: cell-based; conditions: Homo sapiens
Method: [Worded in the source for another cell line; this cell line is reported under the same test.] as §1, §2

[9] = system: PP2A; test: PP2A phosphatase activity (malachite green-phosphate assay in cell lysate); assay type: cell-based
Method: The protein phosphatase activity in each cell lysate was determined by measuring the generation of free phosphate from threonine phosphopeptide using the malachite green-phosphate complex assay as described by the manufacturer (Upstate Biotechnology, Lake Placid, N.Y., USA). In brief, HCC cell lysates were first prepared in a low-detergent lysis buffer. […] After incubation for 10 min at 30° C., the malachite dye was added and free phosphate was measured by optical density at 650 nm. In order to avoid variation resulting from differences in the amount of immunoprecipitation protein between samples, the phosphatase activities were normalized to the amounts of PP2A immunoprecipitated, which were detected and quantified by immunoblot analysis for each treatment group.

[10] = target: T1, SET-PP2Ac binding (Homo sapiens, UniProt Q01105); test: disruption of SET-PP2Ac binding (surface plasmon resonance, co-IP)
T1 construct: His; purchased Genway (SET-His); Abnova (PP2Ac-GST) GWB-ATG319; H00005515
Method: Binding affinities of full-length SET and truncated SET to PP2Ac and the effect of the erlotinib derivatives of the present invention on disrupting SET and PP2Ac were analyzed. PP2Ac-GST recombinant protein was bound in the CMS chip pre-coated with GST-capture antibodies. Sensorgrams were generated by injecting several concentrations of the erlotinib derivatives of the present invention mixed with fixed-concentration of SET recombinant protein, or the mixture of different concentration of truncated SET proteins in a fixed-dose EMQA. PP2Ac-GST recombinant protein used for this experiment was purchased from Abnova (H00005515) and SET-His recombinant protein was obtained from Genway (GWB-ATG319).
EMQA reactivates PP2A by disrupting the binding of SET-PP2Ac. To validate the role of SET, the present invention generated Hep3B cells with ectopic expression of myc-tagged SET by transient transfection. […] With a fixed amount of PP2Ac coated on the CM chip, the present invention tested the effects of a fixed-dose of EMQA on interfering different proportions of full-length and truncated forms of SET proteins in SPR system. […] To validate the findings of this ex vivo system, the present invention generated cells with ectopic overexpression of these two truncated forms of Flag-tagged SET proteins by transient transfections.

[11] = system: PLC5 xenograft tumor; test: PLC5 xenograft tumor growth in nude mice; assay type: in vivo; conditions: 10 mg/kg, oral gavage daily, 4 weeks, vs control arm
Method: Male NCr athymic nude mice (5-7 weeks of age) were obtained from the National Laboratory Animal Center (Taipei, Taiwan). All experimental procedures using these mice were performed in accordance with protocols approved by the Institutional Laboratory Animal Care and Use Committee of National Taiwan University. Each mouse was inoculated subcutaneously in the dorsal flank with 1×10^6 PLC5 or A549 cells suspended in serum-free medium containing 50% Matrigel (BD Biosciences, Bedford, Mass., USA). When tumors reached 100-150 mm^3, mice were treated with sorafenib, the erlotinib derivatives of the present invention, or vehicle (control) at 10 mg/kg/day daily by oral gavage for 4 weeks.
The present invention used a PLC5 xenograft mouse model to assess the effects of TD-52 in vivo. The present choose sorafenib as one of the comparative treatment arms. Tumor-bearing mice were administered sorafenib (10 mg/kg), TD-52 (10 mg/kg) or DMSO (vehicle, as control). […] The present invention further examined the xenografted tumors taken from mice receiving TD-52 and vehicle to confirm the molecular events in the tumor tissue. […] When PP2A activity was enhanced by TD-52, Akt was dephosphorylated, promoting HCC cell apoptosis.

T1 sequence (Q01105 1-277 isoform Q01105-2): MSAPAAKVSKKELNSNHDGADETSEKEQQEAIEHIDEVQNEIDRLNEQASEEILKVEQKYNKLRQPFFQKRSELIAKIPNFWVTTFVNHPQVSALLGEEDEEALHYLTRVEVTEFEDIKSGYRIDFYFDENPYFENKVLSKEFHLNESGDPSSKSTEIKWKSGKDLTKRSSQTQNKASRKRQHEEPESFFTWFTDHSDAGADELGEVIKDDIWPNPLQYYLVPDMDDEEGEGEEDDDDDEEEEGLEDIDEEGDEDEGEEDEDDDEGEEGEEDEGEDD

Row | SMILES | viability at 1 µM [1] [%] | viability at 10 µM [1] [%] | viability at 1 µM [2] [%] | viability at 10 µM [2] [%] | viability at 1 µM [3] [%] | viability at 10 µM [3] [%] | viability at 1 µM [4] [%] | viability at 10 µM [4] [%] | viability at 1 µM [5] [%] | viability at 10 µM [5] [%] | BA (%) [6] [%] | viability at 1 µM [7] [%] | viability at 10 µM [7] [%] | viability at 1 µM [8] [%] | viability at 10 µM [8] [%] | minimal concentration for PP2A activation [9] [nM] | IC50 [5] [nM] | minimal concentration to disrupt SET-PP2Ac binding [10] [nM] | tumor size [11]
1 | Cc1ccc(Nc2nc3ccccc3nc2Nc2ccc(C)c(O)c2)cc1O [TD66, 5,5′-(quinoxaline-2,3-diylbis(azanediyl))bis(2-methylphenol)] | 104 ± 8.53 | 51.7 ± 20.5 | 113 ± 4.64 | 77.4 ± 20.5 | 96.6 ± 0.9 | 14.9 ± 3 | 101.5 ± 0.48 | 3.7 ± 1.37 | 84.5 ± 2.3 | 10.1 ± 0.2 | 22 | 71.2 ± 1.2 | 4.7 ± 0.1 | 55.5 ± 5.1 | 11.1 ± 0.6 | – | – | – | –
2 | C#Cc1cccc(Nc2nc3ccc([N+](=O)[O-])cc3nc2Nc2cccc(C#C)c2)c1 [TD604, N^2,N^3-bis(3-ethynylphenyl)-6-nitroquinoxaline-2,3-diamine] | 30.5 ± 13.9 | 0.99 ± 0.02 | 86.1 ± 22.8 | 0 | 115 ± 9 | 116 ± 8.5 | 74.7 ± 6.38 | 2.06 ± 0.66 | 15.2 ± 0.5 | 12.5 ± 0.3 | 57 | 40.3 ± 1.7 | 5.3 ± 0.3 | 117 ± 7.2 | 132 ± 5.1 | <50 | 600 | 50 to 100 | –
3 | FC(F)(F)c1cc(Nc2nc3ccccc3nc2Nc2ccc(Cl)c(C(F)(F)F)c2)ccc1Cl [TD63, N^2,N^3-bis(4-chloro-3-(trifluoromethyl)phenyl)quinoxaline-2,3-diamine] | 28.5 ± 0.58 | 0.45 ± 0.14 | 54.8 ± 3.35 | 3.28 ± 4.63 | 66.8 ± 8.5 | 16.2 ± 1.3 | 78.5 ± 1.28 | 9.13 ± 0.63 | 54.5 ± 5.5 | 28.8 ± 7.9 | – | 99.9 ± 4.3 | 19.6 ± 0.4 | 79.2 ± 7.8 | 21.9 ± 2.2 | 100 to 200 | – | <100 | –
4 | C#Cc1cccc(Nc2nc3cc([N+](=O)[O-])ccc3nc2Nc2ccc(OC)cc2)c1 [TD605, N^3-(3-ethynylphenyl)-N^2-(4-methoxyphenyl)-6-nitroquinoxaline-2,3-diamine] | 89.1 ± 6.09 | 0.78 ± 0.39 | 87.1 ± 27.2 | 2.21 ± 1.34 | 101 ± 13.6 | 113 ± 12 | 108 ± 3.88 | 5.53 ± 0.81 | 20.8 ± 0.4 | 13.8 ± 0.2 | – | 53.1 ± 1.9 | 5.5 ± 0.2 | 83.7 ± 7 | 113 ± 18.3 | 100 to 200 | 500 | 100 to 200 | –
5 | Clc1cc(Cl)cc(Nc2nc3ccccc3nc2Cl)c1 [TD78, 3-chloro-N-(3,5-dichlorophenyl)quinoxalin-2-amine] | 108.5 ± 0.14 | 108 ± 2.23 | 102 ± 6.69 | 84.1 ± 1.12 | 98.7 ± 4.6 | 90.8 ± 7.4 | 111 ± 1.69 | 93.09 ± 0.66 | 70.6 ± 8.2 | 73.2 ± 14.1 | – | 118 ± 2.2 | 111 ± 12.9 | 77.6 ± 5.8 | 94.7 ± 11.3 | >200 | – | 100 to 200 | –
6 | C#Cc1cccc(Nc2nc3cc([N+](=O)[O-])ccc3nc2Nc2ccc(O)cc2)c1 [TD619, 4-(2-(3-ethynylphenylamino)-7-nitroquinoxalin-3-ylamino)phenol] | – | – | – | – | 87.5 ± 3.6 | 22.1 ± 0.6 | – | – | 119 ± 11.2 | 33.6 ± 5.4 | 62 | 110 ± 18.2 | 19.5 ± 0.7 | 105 ± 19.5 | 20.9 ± 1.7 | – | – | – | –
7 | CNC(=O)c1cc(Oc2ccc(NC(=O)Nc3ccc(Cl)c(C(F)(F)F)c3)cc2)ccn1 [sorafenib, reference compound] | – | – | – | – | – | – | – | – | – | – | – | – | – | – | – | – | – | – | smaller than those of the control arm
